Test results published in patent publication US11702422B2, “Imidazopyridazines as modulators of IL-17” (Janssen Pharmaceutica NV, priority 2020, dated 2023).

Tests used:
[1] = tested on: IL-17A-induced G-CSF production in human normal keratinocyte (NHK); assay: NHK Assay: IL-17A-induced G-CSF production in human normal keratinocytes; format: cell-based; details: 24 h, adult normal human keratinocytes, IL-17A 5 ng/mL, simple average if tested more than once
Method in brief: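 Adult normal human keratinocytes were seeded at 3000-4000 cells/well. Recombinant human IL-17A was pre-incubated 1 h at rt with titrated compound, then added to cells (final 5 ng/mL IL-17A, 0.2% DMSO, 5% FBS) for 24 h at 37° C. Supernatant G-CSF was measured by HTRF against a standard curve to give IC50.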

[2] = biological target: IL-17A(FLAG-Tagged): IL-17RA(His-Tagged) (Homo sapiens, UniProt Q16552, K93Q); assay: IL-17A(FLAG-Tagged): IL-17RA(His-Tagged) Binding Disruption Eu-HTRF Assay; details: IL-17A/IL-17RA binding disruption, simple average if tested more than once
Chain of UniProt Q16552 (Q16552 with tags, fused parts or gaps K93Q): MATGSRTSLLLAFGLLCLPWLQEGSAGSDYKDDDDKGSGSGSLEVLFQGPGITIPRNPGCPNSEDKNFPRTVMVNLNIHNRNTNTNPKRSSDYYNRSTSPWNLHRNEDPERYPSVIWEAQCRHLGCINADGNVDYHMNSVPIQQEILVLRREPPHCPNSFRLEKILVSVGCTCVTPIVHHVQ
Method in brief: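 IC50 comes from a one-site competition fit of the HTRF 665/620 nm ratio. Compound dilutions (2-fold, 22 points) were held 1 h rt with FLAG-tagged IL-17A dimer, then His-tagged IL-17RA plus Eu-cryptate anti-FLAG and D2 anti-His antibodies were added for 2 h rt.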

| Compound | IC50 [2] [µM] | IC50 ([1]; Homo sapiens, Keratinocyte) [µM] | IC50 [1] [µM] |
| --- | --- | --- | --- |
| Cc1nonc1C(=O)N[C@H](c1cn2ncc([C@H](NC(=O)COC3CC(F)(F)C3)C3CC3)cc2n1)C1CCC(F)(F)CC1 [Example 308, N—((S)-(7-((R)-Cyclopropyl(2-(3,3-difluorocyclobutoxy)acetamido)methyl)imidazo[1,2-b]pyridazin-2-yl)(4,4-difluorocyclohexyl)methyl)-4-methyl-1,2,5-oxadiazole-3-carboxamide] | 0.2 | 1.7 | – |
| Cc1nccnc1C(=O)N[C@H](c1cn2ncc([C@H](NC(=O)CCC(F)(F)F)C3CC3)cc2n1)C1CCC(F)(F)CC1 [Example 219, N—((S)-(7-((R)-Cyclopropyl(4,4,4-trifluorobutanamido)methyl)imidazo[1,2-b]pyridazin-2-yl)(4,4-difluorocyclohexyl)methyl)-3-methylpyrazine-2-carboxamide] | 2.1 | > 20 | – |
| N#CCC(NC(=O)CC1CC(F)(F)C1)c1cnn2cc([C@@H](NC(=O)c3nonc3C3CC3)C3CCC(F)(F)CC3)nc2c1 (single isomer, unassigned) [Example 398, N—((S)-(7-((S*)-2-Cyano-1-(2-(3,3-difluorocyclobutyl)acetamido)ethyl)imidazo[1,2-b]pyridazin-2-yl)(4,4-difluorocyclohexyl)methyl)-4-cyclopropyl-1,2,5-oxadiazole-3-carboxamide] | 0.042 | 0.071 | – |
| O=C(CCC(F)(F)F)N[C@@H](c1cnn2cc([C@@H](NC(=O)c3cncc(OC(F)F)c3)C3CCC(F)(F)CC3)nc2c1)C1CC1 [Example 417, N—((S)-(7-((R)-Cyclopropyl(4,4,4-trifluorobutanamido)methyl)imidazo[1,2-b]pyridazin-2-yl)(4,4-difluorocyclohexyl)methyl)-5-(difluoromethoxy)nicotinamide] | 0.068 | 0.41 | – |
| CC(C)n1nccc1C(=O)N[C@H](c1cn2ncc([C@@H](NC(=O)C[C@@H]3CC3(F)F)C3CC3)cc2n1)C1CCC(F)(F)CC1 (single isomer, unassigned) [Example 139] | 0.73 | 0.69 | – |
| Cc1nonc1C(=O)N[C@H](c1cn2ncc([C@H](NC(=O)CC(C)C(F)(F)F)C3CC3)cc2n1)C1CCC(F)(F)CC1 (single isomer, unassigned) [Example 243, N—((S)-(7-((R)-Cyclopropyl((R*)-4,4,4-trifluoro-3-methylbutanamido)methyl)imidazo[1,2-b]pyridazin-2-yl)(4,4-difluorocyclohexyl)methyl)-4-methyl-1,2,5-oxadiazole-3-carboxamide] | 0.089 | 0.27 | – |
| CC(C)n1nccc1C(=O)N[C@H](c1cn2ncc([C@H](NC(=O)COC(F)F)C3CC3)cc2n1)C1CCC(F)(F)CC1 [Example 274, N—((S)-(7-((R)-Cyclopropyl(2-(difluoromethoxy)acetamido)methyl)imidazo[1,2-b]pyridazin-2-yl)(4,4-difluorocyclohexyl)methyl)-1-isopropyl-1H-pyrazole-5-carboxamide] | 0.33 | 0.95 | – |
| CO[C@@H](C)[C@@H](NC(=O)CC1CC(F)(F)C1)c1cnn2cc([C@@H](NC(=O)c3nonc3C)C3CCC(F)(F)CC3)nc2c1 [Example 323, N—((S)-(7-((1S,2S)-1-(2-(3,3-Difluorocyclobutyl)acetamido)-2-methoxypropyl)imidazo[1,2-b]pyridazin-2-yl)(4,4-difluorocyclohexyl)methyl)-4-methyl-1,2,5-oxadiazole-3-carboxamide] | 0.12 | 0.67 | – |

More lines, in order of falling IC50 [2], values ahead:

| IC50 [2] [µM] | Compound | IC50 ([1]; Homo sapiens, Keratinocyte) [µM] | IC50 [1] [µM] |
| --- | --- | --- | --- |
| 5.4 | Cc1nonc1C(=O)N[C@H](c1cn2ncc(C(C)NC(=O)CCC(F)(F)F)cc2n1)C1CCC(F)(F)CC1 (single isomer, unassigned) [Example 505, N—((S)-(4,4-Difluorocyclohexyl)(7-((R*)-1-(4,4,4-trifluorobutanamido)ethyl)imidazo[1,2-b]pyridazin-2-yl)methyl)-4-methyl-1,2,5-oxadiazole-3-carboxamide] | – | > 20 |
| 1.9 | CCC(NC(=O)CC1CC(F)(F)C1)c1cnn2cc([C@@H](NC(=O)c3nonc3C)C3CCC(F)(F)CC3)nc2c1 (single isomer, unassigned) [Example 509, N—((S)-(7-((S*)-1-(2-(3,3-Difluorocyclobutyl)acetamido)propyl)imidazo[1,2-b]pyridazin-2-yl)(4,4-difluorocyclohexyl)methyl)-4-methyl-1,2,5-oxadiazole-3-carboxamide] | > 20 | – |
| 0.62 | O=C(CCC(F)(F)F)N[C@@H](c1cnn2cc([C@@H](NC(=O)c3cncc(C(F)(F)F)n3)C3CCC(F)(F)CC3)nc2c1)C1CC1 [Example 210, N—((S)-(7-((R)-Cyclopropyl(4,4,4-trifluorobutanamido)methyl)imidazo[1,2-b]pyridazin-2-yl)(4,4-difluorocyclohexyl)methyl)-6-(trifluoromethyl)pyrazine-2-carboxamide] | > 20 | – |
| 0.18 | CC(C)(O)c1nonc1C(=O)N[C@H](c1cn2ncc(C(NC(=O)CC3CC(F)(F)C3)C3CCC3)cc2n1)C1CCC(F)(F)CC1 (single isomer, unassigned) [Example 499, N—((S)-(7-((R*)-Cyclobutyl(2-(3,3-difluorocyclobutyl)acetamido)methyl)imidazo[1,2-b]pyridazin-2-yl)(4,4-difluorocyclohexyl)methyl)-4-(2-hydroxypropan-2-yl)-1,2,5-oxadiazole-3-carboxamide] | 0.16 | – |
| 0.15 | CC(C)n1nccc1C(=O)N[C@H](c1cn2ncc([C@H](NC(=O)COC(F)(F)F)C3CC3)cc2n1)C1CCC(F)(F)CC1 [Example 276, N—((S)-(7-((R)-Cyclopropyl(2-(trifluoromethoxy)acetamido)methyl)imidazo[1,2-b]pyridazin-2-yl)(4,4-difluorocyclohexyl)methyl)-1-isopropyl-1H-pyrazole-5-carboxamide] | 0.14 | – |
| 0.14 | O=C(CCC(F)(F)F)N[C@@H](c1cnn2cc([C@@H](NC(=O)c3ccnc(C(F)(F)F)c3)C3CCC(F)(F)CC3)nc2c1)C1CC1 [Example 194, N—((S)-(7-((R)-Cyclopropyl(4,4,4-trifluorobutanamido)methyl)imidazo[1,2-b]pyridazin-2-yl)(4,4-difluorocyclohexyl)methyl)-2-(trifluoromethyl)isonicotinamide] | 1.6 | – |
| 0.13 | CC(F)(F)CCn1ncnc1C(=O)N[C@H](c1cn2ncc([C@H](NC(=O)CCC(F)(F)F)C3CC3)cc2n1)C1CCC(F)(F)CC1 [Example 476, N—((S)-(7-((R)-Cyclopropyl(4,4,4-trifluorobutanamido)methyl)imidazo[1,2-b]pyridazin-2-yl)(4,4-difluorocyclohexyl)methyl)-1-(3,3-difluorobutyl)-1H-1,2,4-triazole-5-carboxamide] | 0.39 | – |
| 0.062 | O=C(CCC(F)(F)F)N[C@@H](c1cnn2cc([C@@H](NC(=O)c3cncc(C4CCC4)c3)C3CCC(F)(F)CC3)nc2c1)C1CC1 [Example 416, 5-Cyclobutyl-N—((S)-(7-((R)-cyclopropyl(4,4,4-trifluorobutanamido)methyl)imidazo[1,2-b]pyridazin-2-yl)(4,4-difluorocyclohexyl)methyl)nicotinamide] | 0.55 | – |
